Laboratory results: patent publication US20020081686A1 (priority 1999, published 2002)

System: PPK2
Settings: 1 mM Pi
Source text: PPK2 has been detected in crude cell extracts of K.pneumoniae and E. coli.

Substance: phosphate
- inhibition of PPK2: about 90%
